The values below come from patent US11083717B2, “Compositions and methods for drug sensitization of parasites” (The Texas A&M University System, priority 2015, dated 2021).

Data set [1] concerns Cryptosporidium parvum (CP). Put plainly: Cell culture model of Cryptosporidium parvum infection in HCT-8 cells, real-time qRT-PCR. The format is cell-based. Conditions: Cryptosporidium parvum. The method in brief:
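HCT-8 monolayers were infected with C. parvum Iowa oocysts (1.5×10^4/well) for 3 h, then compounds were added after medium exchange and cells were incubated 41 h more (44 h total, 37 °C). Parasite Cp18S rRNA was measured by one-step SYBR qRT-PCR of lysates, normalized to host Hs18S, and % inhibition at the stated µM was derived from a standard curve.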
Background: Quantitative PCR measures a nucleic acid by following its amplification.

Data set [2] can be described thus: HCLint in vitro intrinsic clearance, human (HLM). Format: in vitro ADME.
The subject of another data set is human fibroblast. Nature of the data set: in vitro. Conditions: human.
The next data set relates to S. cerevisiae. Nature of the data set: in vitro. Conditions: Saccharomyces cerevisiae.
A short description of data set [3]: MCLint in vitro intrinsic clearance, mouse (MLM). The format is in vitro ADME.
The nature of the next data set: Plasma protein binding. The format is in vitro ADME. Particulars: mouse, mice, read-out: PPB (converted).
The next data set is described as follows: Kinetic solubility. Format: physicochemical.
The target of data set [4] is Human ether-a-go-go-related gene (hERG) (Homo sapiens, UniProt Q12809). Nature of the data set: hERG test (potential cardiotoxicity). Format: biochemical. Particulars: read-out: hERG (Abbvie). A general note: hERG is a cardiac potassium channel; its block is linked to QT prolongation.
Sequence of Human ether-a-go-go-related gene (hERG) (Q12809 whole entry): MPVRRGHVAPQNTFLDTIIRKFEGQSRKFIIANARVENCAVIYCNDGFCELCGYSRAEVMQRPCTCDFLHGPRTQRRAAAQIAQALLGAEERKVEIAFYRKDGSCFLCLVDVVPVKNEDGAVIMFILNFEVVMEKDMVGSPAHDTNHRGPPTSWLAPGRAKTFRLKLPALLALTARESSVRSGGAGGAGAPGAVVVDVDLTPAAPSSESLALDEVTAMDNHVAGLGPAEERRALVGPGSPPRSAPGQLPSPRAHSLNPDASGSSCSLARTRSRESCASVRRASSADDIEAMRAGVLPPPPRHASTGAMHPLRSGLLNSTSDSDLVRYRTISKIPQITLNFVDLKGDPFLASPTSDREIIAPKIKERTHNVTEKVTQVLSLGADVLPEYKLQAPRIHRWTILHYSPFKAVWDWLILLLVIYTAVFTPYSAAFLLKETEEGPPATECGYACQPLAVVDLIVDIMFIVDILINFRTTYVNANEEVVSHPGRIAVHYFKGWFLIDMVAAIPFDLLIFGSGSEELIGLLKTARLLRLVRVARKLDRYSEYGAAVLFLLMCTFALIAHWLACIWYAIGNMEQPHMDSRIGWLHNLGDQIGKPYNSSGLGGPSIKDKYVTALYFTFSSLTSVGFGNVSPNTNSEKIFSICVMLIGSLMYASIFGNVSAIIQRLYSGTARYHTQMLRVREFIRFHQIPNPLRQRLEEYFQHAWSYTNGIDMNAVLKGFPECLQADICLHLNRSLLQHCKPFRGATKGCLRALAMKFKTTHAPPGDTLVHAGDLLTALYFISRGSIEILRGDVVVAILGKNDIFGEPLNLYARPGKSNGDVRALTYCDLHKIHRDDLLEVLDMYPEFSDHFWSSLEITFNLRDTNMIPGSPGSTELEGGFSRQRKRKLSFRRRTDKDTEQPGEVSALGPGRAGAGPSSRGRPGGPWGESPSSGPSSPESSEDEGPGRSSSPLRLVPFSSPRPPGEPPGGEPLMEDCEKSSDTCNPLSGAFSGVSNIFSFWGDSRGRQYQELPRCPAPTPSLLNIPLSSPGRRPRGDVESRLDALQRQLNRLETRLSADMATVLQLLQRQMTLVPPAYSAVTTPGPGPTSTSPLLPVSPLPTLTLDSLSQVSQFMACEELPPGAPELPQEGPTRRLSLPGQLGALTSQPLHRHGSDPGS
The next data set has as its system Cryptosporidium parvum. Particulars: for effectiveness in the same type of test (IL-12 knockout mouse model): in vivo. The procedure:
The anticryptosporidial activity of the in vitro inhibitors was assessed in the IL-12 knockout mouse model that resembles the acute human disease (Ehigiator H N, Romagnoli P, Borgelt K, Fernandez M, McNair N, Secor W E, Mead J R. 2005. Mucosal cytokine and antigen-specific responses to Cryptosporidium parvum in IL-12p40 KO mice. Parasite Immunol. 27: 17-28; Campbell L D, Stewart J N, Mead J R. 2002. Susceptibility to Cryptosporidium parvum infections in cytokine- and chemokine-receptor knockout mice. J. Parasitol. 88:1014-1016). The protocol was approved by the Institutional Animal Care and Use Committees of Emory University, the AtlantaVAMedical Center, and Brandeis University. Mice (6 to 10 per group) were inoculated with 1,000 purified CP oocysts (Iowa isolate, from cattle). Treatment by gavage began 4 h postinfection with either vehicle (5% dimethyl sulfoxide (DMSO) in canola oil), 50-100 mg/kg compound, or 2,000 mg/kg paromomycin. Compounds were given for 7 days, and mice were sacrificed on day 8 (peak infection). Parasite load was quantified by fluorescence-activated cell sorting (FACS) assays for the presence of the oocysts in the feces at days 0, 4, and 7. Fecal pellets from individual mice were routinely collected daily and homogenized in adjusted volumes of 2.5% potassium dichromate. Samples were processed individually. Aliquots (200 ul) of vortexed samples were processed over microscale sucrose gradients as previously described (Arrowood M J, Hurd M R, Mead J R. 1995. A new method for evaluating experimental cryptosporidial parasite loads using immunofluorescent flowcytometry. J. Parasitol. 81:404-409). The oocyst-containing fraction was collected, washed, and treated with monoclonal antibody (OW5O-FITC) for 20 min. Samples were adjusted to 600 ul, and a portion (100 ul) was assayed with a 102-s sampling interval using logical gating of forward/side scatter and OW5O-FITC fluorescence signal on a Becton, Dickinson FACScan flow cytometer. Flow cytometry data were evaluated by analysis of variance (KaleidaGraph (Synergy Software, Reading Pa.); Microsoft Excel (Microsoft Corporation, Redmond, Wash.)).
NZ-366 (50 mg/kg) and NZ-369 (100 mg/kg) were administered via gavage in a single daily dose to IL-12 knockout mice that were infected with 1,000 CP oocysts. Additional control groups included those treated with single daily doses of vehicle, and paromomycin (Prm) (2,000 mg/kg), by oral gavage.

Where [5] appears, read: 44 h, CP in HCT-8 cells, 44 h infection, 50% reduction of parasite growth vs control, NA: not active, read-out: MIC50.

Converted amounts (≈) assume the structure as drawn. Read-outs that look alike come from different tables or passages of the source.

Consider `CC(C)NC(=O)C(C)c1ccc(Oc2nc3ccc(Cl)cc3s2)cc1` (stereo not drawn) [NZ-327, 2-{4-[(6-chloro-1,3-benzothiazol-2-yl)oxy]phenyl}-N-(propan-2-yl)propanamide], for which the MIC50 in data set [1] (setting [5]) and in data set [1] (read-out: MIC50 (nM) (CP)) was 7 to 22 nM (≈ 0.00262 to 0.00825 µg/mL) each time. For the same molecule, in data set [2], the “HCLint (mL/min/g liver), HLM” value is on record as “HLM = 1.3 mL/min/g liver”. For the same molecule, the “concentrations at which not toxic, human fibroblast cytotoxicity testing” value in the data set on human fibroblast is at least 100 µM. Further, the “concentrations at which not toxic, S. cerevisiae cytotoxicity testing” value in the data set on S. cerevisiae was at least 100 µM. Besides, the IC50 in “in vitro” (Saccharomyces cerevisiae) and in “in vitro” (human) was above 100 µM throughout. Besides, in data set [3], the “MCLint (mL/min/g liver), MLM” value was “MLM = 3.7 mL/min/g liver”. In addition, the fraction unbound in “Plasma protein binding” was 0.016. For the same molecule, in the data set “Kinetic solubility”, the “Kinetic Sol.” value was found to be 33 µM.
As to `COCCNC(=O)C(C)c1ccc(Oc2nc3ccc(Cl)cc3s2)cc1` (stereo not drawn) [NZ-541, 2-{4-[(6-chloro-1,3-benzothiazol-2-yl)oxy]phenyl]-N-(2-methoxyethyl)propanamide], the MIC50 in [1] (setting [5]) and in [1] (read-out: MIC50 (nM) (CP)) was 81 nM (≈ 0.0317 µg/mL) in each case. Besides, the “HCLint (mL/min/g liver), HLM” value in data set [2] is recorded as “HLM = 2.0 mL/min/g liver”. Moreover, the IC50 in the data set “in vitro” (Saccharomyces cerevisiae) was above 100 µM; in “in vitro” (human) it was above 100 µM; in [4], 27 µM. Besides, the “MCLint (mL/min/g liver), MLM” value in data set [3] is listed as “MLM = 6.3 mL/min/g liver”.
As for `CC(C(=O)NC1CC1)c1ccc(Oc2nc3ccc(Cl)cc3s2)cc1` (stereo not drawn) [NZ-538, 2-{4-[(6-chloro-1,3-benzothiazol-2-yl)oxy]phenyl}-N-cyclopropylpropanamide], the MIC50 in [1] (setting [5]) and in [1] (read-out: MIC50 (nM) (CP)) was 54 nM (≈ 0.0201 µg/mL) each time. In addition, the “HCLint (mL/min/g liver), HLM” value in data set [2] is recorded as “HLM = 0.7 mL/min/g liver”. Further, the IC50 was above 100 µM in the data set “in vitro” (Saccharomyces cerevisiae), above 100 µM in the data set “in vitro” (human) and 7.3 µM in data set [4]. Also, the “MCLint (mL/min/g liver), MLM” value in [3] is on record as “MLM = 3.9 mL/min/g liver”.
For `CC(C(=O)N1CCS(=O)(=O)CC1)c1ccc(Oc2nc3ccc(Cl)cc3s2)cc1` (stereo not drawn) [NZ-553, 4-(2-{4-[(6-chloro-1,3-benzothiazol-2-yl)oxy]phenyl}propanoyl)-1λ^6,4-thiomorpholine-1,1-dione], the MIC50 in data set [1] (setting [5]) and in [1] (read-out: MIC50 (nM) (CP)) was 2 nM (≈ 0.000902 µg/mL) each time. In addition, the “HCLint (mL/min/g liver), HLM” value in [2] was “HLM = 0.87 mL/min/g liver”. For the same molecule, the results for the IC50 (in “in vitro” (Saccharomyces cerevisiae); in the data set “in vitro” (human); in data set [4]) were above 100 µM, 40 µM and 11 µM, respectively. In addition, the “MCLint (mL/min/g liver), MLM” value in [3] is reported as “MLM = 1.28 mL/min/g liver”. Also, in “Plasma protein binding”, the fraction unbound was 0.01. The “Kinetic Sol.” value in the data set “Kinetic solubility” was determined as 100 µM.
As for `CC(C(=O)NCCN(C)C)c1ccc(Oc2nc3ccc(Cl)cc3s2)cc1` (stereo not drawn) [NZ-516, 2-{4-[(6-chloro-1,3-benzothiazol-2-yl)oxy]phenyl}-N-[2-(dimethylamino)ethyl]propanamide], the MIC50 in data set [1] (setting [5]) and in data set [1] (read-out: MIC50 (nM) (CP)) was 16 nM (≈ 0.00646 µg/mL) in each case. Also, the “HCLint (mL/min/g liver), HLM” value in data set [2] is given as “HLM = 0.54 mL/min/g liver”. The “concentrations at which not toxic, human fibroblast cytotoxicity testing” value with human fibroblast was at least 100 µM. The “concentrations at which not toxic, S. cerevisiae cytotoxicity testing” value with S. cerevisiae was at least 100 µM. Further, the IC50 in “in vitro” (Saccharomyces cerevisiae) was above 100 µM; in the data set “in vitro” (human), 5.6 µM; in [4] it was 2.7 µM. For the same molecule, the “MCLint (mL/min/g liver), MLM” value in [3] is “MLM = 4.1 mL/min/g liver”. The “Kinetic Sol.” value in “Kinetic solubility” amounted to 100 µM. The “Mouse Model (Mead) DPI7” value in the data set on Cryptosporidium parvum (@50 mg/kg, day 7 post infection) is on record as “DPI7 = 94%”. For the same molecule, in the data set with Cryptosporidium parvum, the “effectiveness in the same type of test (IL-12 knockout mouse model)” value (“effectiveness in the same type of test” for short) is reported as “effective”.
Consider `CC(C(=O)N1CCOCC1)c1ccc(Oc2nc3ccc(Cl)cc3s2)cc1` (stereo not drawn) [NZ-365, 2-{4-[(6-chloro-1,3-benzothiazol-2-yl)oxy]phenyl}-1-(morpholin-4-yl)propan-1-one], for which the MIC50 in [1] (setting [5]) and in data set [1] (read-out: MIC50 (nM) (CP)) was 25 nM (≈ 0.0101 µg/mL) in each case. Further, the “HCLint (mL/min/g liver), HLM” value in [2] is “HLM = 4.8 mL/min/g liver”. In addition, the “concentrations at which not toxic, human fibroblast cytotoxicity testing” value in the data set with human fibroblast was at least 100 µM. In addition, the “concentrations at which not toxic, S. cerevisiae cytotoxicity testing” value in the data set on S. cerevisiae was in the range of 50 to 100 µM. Further, the IC50 in the data set “in vitro” (Saccharomyces cerevisiae) is above 100 µM; in “in vitro” (human), above 100 µM; in data set [4], 12 µM. Also, the “MCLint (mL/min/g liver), MLM” value in data set [3] is on record as “MLM = 10 mL/min/g liver”. For the same molecule, the “Kinetic Sol.” value in “Kinetic solubility” worked out at 28 µM.
For the molecule `CC(C(=O)NC1CCOC1)c1ccc(Oc2nc3ccc(Cl)cc3s2)cc1` (stereo not drawn) [NZ-544, 2-{4-[(6-chloro-1,3-benzothiazol-2-yl)oxy]phenyl}-N-(oxolan-3-yl)propanamide], the MIC50 in data set [1] (setting [5]) and in data set [1] (read-out: MIC50 (nM) (CP)) was 72 nM (≈ 0.029 µg/mL) each time. For the same molecule, the “HCLint (mL/min/g liver), HLM” value in data set [2] is reported as “HLM = 2.6 mL/min/g liver”. In addition, the IC50 in “in vitro” (Saccharomyces cerevisiae) is above 100 µM; in “in vitro” (human), above 100 µM; in [4] it was 11 µM. For the same molecule, the “MCLint (mL/min/g liver), MLM” value in [3] was “MLM = 3.3 mL/min/g liver”.
`CC(C(=O)NC1COC1)c1ccc(Oc2nc3ccc(Cl)cc3s2)cc1` (stereo not drawn) [NZ-543, 2-{4-[(6-chloro-1,3-benzothiazol-2-yl)oxy]phenyl}-N-(oxetan-3-yl)propanamide]: the MIC50 in data set [1] (setting [5]) and in data set [1] (read-out: MIC50 (nM) (CP)) was 45 nM (≈ 0.0175 µg/mL) in each case. Besides, in [2], the “HCLint (mL/min/g liver), HLM” value is reported as “HLM = 1.2 mL/min/g liver”. For the same molecule, the IC50 is above 100 µM in the data set “in vitro” (Saccharomyces cerevisiae), above 100 µM in “in vitro” (human) and 24 µM in data set [4]. The “MCLint (mL/min/g liver), MLM” value in data set [3] is on record as “MLM = 2 mL/min/g liver”.
Regarding `CC(C(=O)N1CCNCC1)c1ccc(Oc2nc3ccc(Cl)cc3s2)cc1` (stereo not drawn) [NZ-364, 2-{4-[(6-chloro-1,3-benzothiazol-2-yl)oxy]phenyl}-1-(piperazin-1-yl)propan-1-one], in [1] (setting [5]), the MIC50 stood at 120 nM (≈ 0.0482 µg/mL). Also, the “concentrations at which not toxic, human fibroblast cytotoxicity testing” value in the data set on human fibroblast is at least 100 µM. The “concentrations at which not toxic, S. cerevisiae cytotoxicity testing” value in the data set with S. cerevisiae is at least 100 µM. The “effectiveness in the same type of test” value in the data set with Cryptosporidium parvum was “effective”.
With `CN1CCN(C(=O)Nc2ccc(Oc3nc4ccc(Cl)cc4s3)cc2)CC1` [NZ-475, N-{4-[(6-chloro-1,3-benzothiazol-2-yl)oxy]phenyl}-4-methylpiperazine-1-carboxamide], the MIC50 in data set [1] (setting [5]) was 60 nM (≈ 0.0242 µg/mL). Moreover, the “concentrations at which not toxic, human fibroblast cytotoxicity testing” value in the data set with human fibroblast was at least 100 µM. In addition, the “concentrations at which not toxic, S. cerevisiae cytotoxicity testing” value in the data set on S. cerevisiae was at least 100 µM. Also, the “effectiveness in the same type of test” value with Cryptosporidium parvum is “effective”.
Take `CC(C(=O)NC1CCC1)c1ccc(Oc2nc3ccc(Cl)cc3s2)cc1` (stereo not drawn) [NZ-539, 2-{4-[(6-chloro-1,3-benzothiazol-2-yl)oxy]phenyl}-N-cyclobutylpropanamide]: the MIC50 in data set [1] (setting [5]) and in data set [1] (read-out: MIC50 (nM) (CP)) was 57 nM (≈ 0.0221 µg/mL) each time. Moreover, the “HCLint (mL/min/g liver), HLM” value in data set [2] was “HLM = 1.8 mL/min/g liver”. Besides, the IC50 in “in vitro” (Saccharomyces cerevisiae) was above 100 µM; in the data set “in vitro” (human), above 100 µM; in [4] it was above 30 µM. In [3], the “MCLint (mL/min/g liver), MLM” value was “MLM = 4.4 mL/min/g liver”.

Usually MIC50 stands for an inhibitory concentration at the 50% level, which refers to growth in some studies and to a panel of isolates in others.
